Data published in ChEMBL document CHEMBL3507680, “University of Dundee, Gates Library screen for HepG2 cell viability”.

Experiment: Human HepG2 cell viability assay in 384 well format
Format: toxicity, cell-based
Design: dose 125 nL, time 70.5 hour; cytotoxicity at 70.5 h: concentration not given beside the values
Conditions: HepG2 cells, read-out: Inhibition

SMILES	cytotoxicity at 70.5 h
Cc1n[nH]c2c1C(c1cccnc1)SCC(=O)N2 (centres undefined)	-13.5%
O=C(CNC(=O)N1CCN(c2cccc(Cl)c2)CC1)Nc1ccccn1	-9.74%
COc1ccc(CNc2c(N3CCN(C)CC3)c(=O)c2=O)cc1	-8.39%
Cc1c(OCC(=O)NCc2ccccc2Cl)c(=O)ccn1C	-23.2%
CC(C)(C)n1ncc2c1NC(=O)CSC2c1ccc2c(c1)OCCO2 (centres undefined)	-13%
CC1CC(=O)c2cc(C(=O)N3CCc4ccccc43)c(=O)[nH]c2C1 (centres undefined)	-1.11%
C[C@@H](O)CNC(=O)c1nc(Cc2c(Cl)cccc2Cl)no1	-8.72%
CC(C)CCNC(=O)c1csc(NC2CC2)n1	-9.92%
CCOC(=O)Cc1csc(NC(=O)c2cc(=O)c(OC)c[nH]2)n1	2.05%
CC(=O)c1cn(CCC(=O)Nc2c3c(nn2C)CSC3)c2ccccc12	14.7%
COCc1nnc(NC(=O)CN2C(=O)c3ccccc3NC2C(C)C)s1 (centres undefined)	-12.3%
O=c1c(NCc2ccco2)c(NCC(O)CN2CCOCC2)c1=O (centres undefined)	-6.2%
O=c1c(NCCc2ccc(O)cc2)c(NCc2ccncc2)c1=O	-0.102%
CNc1c(NCc2ccco2)c(=O)c1=O	-12.4%
CC(C)CNC(=O)CNc1c(NCc2ccncc2)c(=O)c1=O	4.58%
O=c1c(NCCOCCO)c(N2CCN(c3ccccc3)CC2)c1=O	-2.63%
COCCn1ccc(=O)c(OCC(=O)Nc2cccc(Cl)c2)c1C	-8.65%
COc1c[nH]c(C(=O)N2CCN(c3cccc(Cl)c3)CC2)cc1=O	-8.19%
COc1ccc(N2CCN(C(=O)c3cc(=O)c(OC)c[nH]3)CC2)cc1	-6.09%
Cc1nn(C)cc1C1CC(=O)Nc2c1cnn2C(C)C (centres undefined)	-10.7%
Cc1c(C2CC(=O)Nc3c2cnn3C(C)C)cnn1C (centres undefined)	-10.4%
CN1CCN(CC(CC(=O)Nc2ccc(Cl)cc2)C(=O)O)CC1 (centres undefined)	-5.4%

SMILES	cytotoxicity at 70.5 h
CN(Cc1ccccc1)C(=O)Cn1nc(N2CCSCC2)ccc1=O	-6.57%
Cc1cc(NCCO)nc2[nH]nc(N)c12	-14.9%
COc1ccc(CNC(=O)CCCc2nnc3ccc(OC)nn23)cc1	-14.6%
Cn1ccc2c(NC(=O)Cn3ncc4c(c3=O)CCCCC4)cccc21	3.29%
CC(C)Nc1oc(-c2ccc(S(=O)(=O)N(C)C)o2)nc1C#N	-8.63%
Cc1nn2cnnc2c(C)c1CCC(=O)Nc1nnc(C2CC2)s1	-10.7%
CC1=Nc2c(c(=O)[nH]n2C2CCCC2)C(c2ccc(O)cc2)S1 (centres undefined)	-22.9%
COc1ccc(C2SC(C)=Nc3c2c(=O)[nH]n3C2CCCC2)cc1O (centres undefined)	-18.9%
Cn1ccc2c(NC(=O)Cn3ncc4c(c3=O)CCCC4)cccc21	6.85%
CC1=Nc2c(c(=O)[nH]n2C(C)C)C(c2cccc(OC(F)F)c2)S1 (centres undefined)	-17.2%
O=C(CCc1ccc(-n2cnnn2)cc1)Nc1nncs1	-8.9%
Cn1cc(NC(=O)CNC(=O)N2CCN(c3ccccc3)CC2)cn1	-8.66%
O=C(CC1CCCC1)Nc1ccc(-n2cc(Cl)cn2)nc1	-12.3%
COc1cccc2c1ccn2CCNC(=O)CC(C)C	-15.1%
Cc1nc(C(=O)Nc2cccnc2)c(C(C)C)s1	-6.88%
COc1ccc2nnc(CCCC(=O)NCc3ccccc3F)n2n1	21.9%
COc1ccc2nnc(CCCC(=O)Nc3nc4c(s3)CCC4)n2n1	-17.4%
O=C(Nc1cccnc1-n1cc(Cl)cn1)C1CCCCC1	-26.8%
CC(C)CC1CC(=O)Nc2c1cnn2Cc1ccco1 (centres undefined)	-22.8%
Cc1nn(-c2ncnc3[nH]cnc23)c2c1C(C(C)(C)C)CC(=O)N2 (centres undefined)	0.0512%
O=C(CCc1nc2cc(Br)cnc2[nH]1)NCc1cccnc1	-17.1%
O=c1cc2c(nn1CN1CCN(c3ccc(F)cc3)CC1)CCC2	-13.2%

SMILES	cytotoxicity at 70.5 h
O=C(Nc1cccnc1-n1cc(Cl)cn1)C1CC1	-27.5%
CC(C)C1CC(=O)Nc2c1cnn2Cc1ccco1 (centres undefined)	-15.8%
O=c1cc2c(nn1CN1CCN(c3ccccc3)CC1)CCCC2	-15%
COC(=O)[C@H](CCSC)NC(=O)Cc1c(C)nn(-c2ccccc2)c1C	-11.6%
COc1ccc2nnc(CCC(=O)Nc3nc4c(s3)CCCC4)n2n1	-11.9%
Cc1ccc(S(=O)(=O)c2ncccc2CN2CCCCC2)cc1	-21%
CC(C)C1SCC(=O)Nc2c1cnn2C(C)C (centres undefined)	-23.1%
O=c1c(CN2CCOCC2)coc(O)c1CN1CCOCC1	-7.31%
CN(C)CC(=O)N1CCc2ncnc(-c3ccsc3)c2CC1	-0.46%
CCn1nnc2c1CCN(S(C)(=O)=O)C2COCc1ccccc1 (centres undefined)	2.15%
c1csc(CN2C[C@H]3CCC[C@@]3(COCC3CCOCC3)C2)n1	1.66%
CNC(=O)N1CC[C@@H]2CN(CCc3cccc(OC)c3)S(=O)(=O)[C@@H]2CC1	-0.824%
c1ccc(COC[C@@]23CCC[C@@H]2CN(Cc2ccccn2)C3)nc1	0.536%
CN1CCN(Cc2ccco2)Cc2cccnc21	0%
O=C([C@H]1C[C@H]2OCC[C@H]2N(CC2CC2)C1)N1CCCC1	5.6%
Cn1cc(CN2CCc3ncnc(C4CCOC4)c3CC2)cn1 (centres undefined)	6%
Cn1cccc1C(=O)N1CC[C@H]2[C@@H]1CCC(=O)N2c1ccccc1	11.6%
O=C(Cc1ccccc1)N1CC[C@@H]2CNS(=O)(=O)[C@@H]2CC1	2.48%
Cn1cccc1C(=O)N1CC[C@H]2[C@@H]1CCC(=O)N2CC1CC1	3.01%
O=C(NC1CC1)N1CCc2ccc(=O)n(CC3CC3)c2CC1	-1.74%
O=C(NC1CC1)N1CCc2ccc(=O)n(Cc3ccncc3)c2CC1	12.1%
COCCNC(=O)[C@]12COC[C@H]1CN(c1cc(OC)ncn1)C2	-1.98%

SMILES	cytotoxicity at 70.5 h
CN1CC(c2ccccc2)C2(CCN(C(=O)c3cccn3C)CC2)C1=O (centres undefined)	1.54%
COc1cc(N2C[C@@H]3COC[C@]3(C(=O)NCc3ccccn3)C2)ncn1	-3.03%
CCc1cnc(N2CC[C@@H]3CN(C(C)=O)CCO[C@@H]3C2)nc1	-2.86%
CN1C(=O)CC(c2ccccc2)C12CCN(C(=O)c1ccc[nH]1)CC2 (centres undefined)	-4.56%
c1csc(CN2CCC3(CC2)COCCN3CC2CC2)n1	-10.1%
CN1CCN(CC2CC2)C(=O)C12CCN(C(=O)c1cnccn1)CC2	-3.74%
O=C(c1ccco1)N1CCO[C@@H]2CN(c3ncc(F)cn3)CC[C@@H]2C1	-5.01%
Cn1nc(COCC2CC2)c2c1CCN(C(=O)c1ccno1)C2	-10.9%
CN1CC[C@]2(CN(C(=O)c3ccc[nH]3)C[C@H]2c2ccccc2)C1=O	-3.54%
O=C(c1ccoc1)N1CC[C@@H]2[C@@H](CC1)OCCN2c1cccnc1	-5.9%
CCOCc1nn(CC2CC2)c2c1CN(C(=O)c1ccno1)CC2	-7.44%
Cn1ccnc1C(NCc1ccc(Br)cc1)c1ccccc1 (centres undefined)	-0.0759%
Cc1ncnc2c1CCN(C(=O)CN(C)C)CC2	19.6%
O=C1COC2(CCN(c3cccc(F)c3)CC2)CN1Cc1ccccn1	0.382%
CC(C)NC(=O)[C@H]1C[C@@H]2[C@@H](C1)OCCN2CC1CC1	-3.31%
COc1cccc(CCN2C[C@H]3CCNCC[C@H]3S2(=O)=O)c1	23.9%
CCOc1ncnc2c1CCN(C(=O)CN(C)C)CC2	0.621%
O=C(c1ccccc1-c1ccccc1)N1C[C@@H]2CNC[C@]2(C(=O)O)C1	1.22%
O=C([C@H]1C[C@H]2OCC[C@H]2N(CC2CCOCC2)C1)N1CCCC1	-2.01%
Fc1ccc(N2CCC3(CC2)CC(OCc2cccnc2)CO3)cc1 (centres undefined)	0.624%
COc1cccc(CN2CCC3(CCN(c4ncc(F)cn4)CC3)C2)c1	0.663%
O=S1(=O)NC[C@H]2CCN(Cc3ccccc3)CC[C@H]21	-2.52%

SMILES	cytotoxicity at 70.5 h
N#Cc1ccc(CN2CC3(CCCCN3c3cccnc3)CC2=O)cc1 (centres undefined)	1%
CNC(=O)COC1COC2(CCN(c3cnccn3)CC2)C1 (centres undefined)	4.72%
Cc1ccc(CN2CCOC3(CCN(C(=O)C4CCOC4)CC3)C2)cc1 (centres undefined)	-1.7%
Cc1noc(C)c1CN1CCC2(CC1)CCN(C(=O)c1cscn1)C2	10.4%
CCc1ccc(CN2CC[C@@H]3CN(S(C)(=O)=O)CCO[C@@H]3C2)o1	-3.27%
COCCN1CCN(C)C2(CCN(C(=O)c3ccnnc3)CC2)C1=O	-0.603%
CN1CCC2(CCN(CC3CCOCC3)CC2)C1=O	-10.4%
CS(=O)(=O)N1CCCC12CCN(Cc1nccs1)C2 (centres undefined)	-1.64%
O=C(c1ccco1)N1CCO[C@@H]2CN(c3ccccn3)CC[C@@H]2C1	-4.86%
COCCN1CCN(Cc2ccco2)Cc2ccc(C)nc21	2.35%
Fc1cnc(N2CCC3(CC2)CN(Cc2ccccn2)CCO3)nc1	5.75%
c1ccc(CN2C[C@H]3CCC[C@@]3(COCC3CC3)C2)nc1	-0.925%
O=C(C1CN(Cc2ccsc2)Cc2ccnn2C1)N1CCCC1 (centres undefined)	2.84%
CS(=O)(=O)N1CCO[C@@H]2CN(Cc3ccncc3)C[C@@H]2C1	-5.73%
c1csc(CN2CCC3(CCCN3CC3CC3)CC2)n1	-4.63%
O=S(=O)(c1cccnc1)N1C[C@@H]2COC[C@]2(CN2CCOCC2)C1	-4.52%
c1ccc(CN2CCOC3(CCN(c4ncccn4)CC3)C2)nc1	12%
Fc1cccc(N2CCCC3(CN(Cc4ccccn4)CCO3)C2)c1 (centres undefined)	-1.7%
Cc1cccc(CN2Cc3[nH]nc(COc4cccnc4)c3C2)n1	-3.62%
Cn1cnc(S(=O)(=O)N2C[C@H]3CN(Cc4cccnc4)C[C@H]3C2)c1	1.66%
CO[C@@H]1CCN(c2ncc(F)cn2)[C@@H]2CN(Cc3cccnc3)C[C@@H]21	-0.732%
